Data taken from ChEMBL document CHEMBL1154239, “Captopril and 6-mercaptopurine: whose SH possesses higher antioxidant ability?” (Eur J Med Chem, 2009).
Activity calls are given as the source filed them. The calls are words filed in the database; no cut-off is given here.

Legend:
[1] = Antioxidant activity against […]-induced hemolysis of erythrocytes assessed as lag time of inhibition; type: functional, Erythrocyte
[2] = Antioxidant activity assessed as galvinoxyl radical scavenging activity; type: functional
[3] = Antioxidant activity assessed as protection against hemin-induced erythrocytes hemolysis at 0.6 uM; type: functional; details: Erythrocyte
[4] = tested on: Radical scavenging activity; assay: Antioxidant activity assessed as DPPH radical scavenging activity; type: functional
[5] = Antioxidant activity against […]-induced DNA damage assessed as inhibition time; type: functional
[6] = Antioxidant activity assessed as ABTS radical scavenging activity; type: functional
[7] = tested on: Erythrocyte; assay: Antioxidant activity assessed as protection against hemin-induced erythrocytes hemolysis up to 1 uM; type: functional, cell-based

Structure (SMILES)	Time [1]	IC50 [2]	inhibition at 0.6 µM [3]	IC50 [4]	TIME [5]	IC50 [6]	Activity [7]
C[C@H](CS)C(=O)N1CCC[C@H]1C(=O)O [CAPTOPRIL]	270 min	7.1 µM	80%	43 µM	3.38 h	6.5 µM	–
Sc1ncnc2nc[nH]c12 [MERCAPTOPURINE ANHYDROUS]	406 min	188 µM	–	65 µM	3 h	4.7 µM	inactive
OC[C@H]1O[C@@H](n2cnc3c(S)ncnc32)[C@H](O)[C@@H]1O [THIOINOSINE]	482 min	65 µM	–	180 µM	3.12 h	3.9 µM	inactive
Cc1c(C)c2c(c(C)c1O)CCC(C)(C(=O)O)O2 (stereo not given) [TROLOX]	–	–	–	22.8 µM	–	11.6 µM	–
